Test results from patent US4244952A, “Imidazo[2',1':2,3]-thiazolo[5,4-c]pyridines and composition thereof for treating immune diseases” (Yoshitomi Pharmaceutical Industries, Ltd., priority 1978, dated 1981).

Legend:
[1] = system: rosette forming cells (RFC) in the spleen and thymus; test: Activity for potentiating immune response in dd-mice (RFC number after SRBC sensitization in CY-treated mice); format: in vivo, male dd-strain mice
Method: (I) Activity for potentiating immune response in dd-mice
As test animals, male dd-strain mice (8 week old) were used by dividing them into groups of 6 members. Each mouse was orally administered once a day with cyclophosphamide (CY) at a dose of 20 mg/kg 1 and 0 day before the sensitization. The sensitization (day 0) was made by the intravenous injection of the antigen; 1×10^8 sheep red blood cells (SRBC). Each mouse was orally administered with test compounds (day 0-4). Five days after the sensitization, the number of rosette forming cells (RFC) in the spleen and thymus was measured in a usual manner.

Acute toxicity = conditions: mouse, in vivo, male dd-strain mice
Method: Acute toxicity of the test compound was determined using male dd-strain mice (8 week old) as test animals. The test compound was administered orally or intraperitoneally.

[2] = system: rosette forming cells (RFC) in the spleen and thymus; test: Activity for suppressing immune response in BALB/c mice (RFC number after SRBC sensitization); format: in vivo, female BALB/c-strain mice; conditions: 30 mg/kg p.o.; for RFC/organ Spleen: day 0 and 1; for RFC/organ Thymus: day 0 and 1, ** P < 0.01 vs. control
Method: (II) Activity for suppressing immune response in BALB/c mice
As test animals, female BALB/c-strain mice (6 week old) were used by dividing them into groups of 6 members.
The sensitization (day 0) was made by the intraperitoneal injection the antigen; 5×10^8 sheep red blood cells (SRBC). Each mouse was orally administered with test compounds at day 0 and 1. Four days after the sensitization, the number of rosette forming cells (RFC) in the spleen and thymus was measured in a usual manner.

[3] = CY alone, 20 mg/kg p.o. once a day, 1 and 0 day before sensitization, dd-mice
[4] = CY (20 mg/kg) + test compound 1 mg/kg p.o., day 0-4, * P < 0.05 vs. CY treatment
[5] = CY (20 mg/kg) + test compound 1 mg/kg p.o., day 0-4, ** P < 0.01 vs. CY treatment
[6] = CY (20 mg/kg) + test compound 10 mg/kg p.o., day 0-4
[7] = CY (20 mg/kg) + test compound 10 mg/kg p.o., day 0-4, * P < 0.05 vs. CY treatment

SMILES | RFC/organ Spleen [1, 3] | RFC/organ Thymus [1, 3] | number of RFC per spleen and thymus ([1]; group treated with CY alone) | LD50 (Acute toxicity; ip) [mg/kg] | LD50 (Acute toxicity; po) [mg/kg] | RFC/organ Spleen [2] | RFC/organ Thymus [2] | RFC/organ Thymus [1, 4] | RFC/organ Spleen [1, 5] | RFC/organ Spleen [1, 6] | RFC/organ Thymus [1, 7]
O=P1(N(CCCl)CCCl)NCCCO1 (stereo not shown) [CY, cyclophosphamide, reference compound] | 101 × 10^4 | 0.44 × 10^4 | reduced significantly | – | – | – | – | – | – | – | –
CCOC(=O)N1CCc2c(sc3nc(-c4ccc([N+](=O)[O-])cc4)cn23)C1 [Compound A, 7-ethoxycarbonyl-2-(4-nitrophenyl)-5,6,7,8-tetrahydroimidazo[2',1':2,3]thiazolo[5,4-c]pyridine] | – | – | – | 600 | 1000 | 174 × 10^4 | 0.00 × 10^4 | 3.33 × 10^4 | 169 × 10^4 | 220 × 10^4 | 3.11 × 10^4
O=[N+]([O-])c1ccc(CN2CCc3c(sc4nccn34)C2)cc1 [Compound B, 7-(4-nitrobenzyl)-5,6,7,8-tetrahydroimidazo[2',1':2,3]thiazolo-[5,4-c]pyridine] | – | – | – | 600 to 1000 | 600 | 104 × 10^4 | 0.14 × 10^4 | 2.00 × 10^4 | 291 × 10^4 | 135 × 10^4 | 1.56 × 10^4
